# Experimental data: patent publication US9572895B2, “Multiplexed supramolecular assemblies for non-viral delivery of genetic material” (The Board of Trustees of the University of Illinois, priority 2010, dated 2017)
# Tested on: plasmid DNA
# Test: Gel retardation assay on plasmid DNA
# Format: binding
# Conditions: various agent:DNA mass ratios, 1% agarose gel
# Experimental: A solution of DNA (1 μg/10 μL) was prepared in doubled distilled water. Appropriate amounts of spermine, DOS or oligoarginine dissolved in double distilled water were added to the DNA solution (10 μL) to achieve the desired spermine:DNA, DOS:DNA or Arg9:DNA weight ratio (FIGS. 6 and 7). Complexes were incubated at room temperature for 15 min, after which loading dye was added and the solution (10 μL) was run on a 1% agarose gel (70 V, 70 min). DNA was stained with ethidium bromide and visualized on a Gel Doc imaging system (Biorad, Herclues, Calif.).
substance,measurement,value
H-Arg-Arg-Arg-Arg-Arg-Arg-Arg-Arg-Arg-OH trifluoroacetate salt [Arg9],electrostatic interaction with plasmid DNA (gel retardation),confirming the electrostatic interaction
